Results taken from patent US20060281763A1, “Carboxamide inhibitors of TGFbeta” (priority 2005, published 2006).
Like-named read-outs stand apart in the source and are kept apart here.

Target: T1, TGFβ R1 (Homo sapiens, UniProt P36897)
T1 sequence (P36897 34-503): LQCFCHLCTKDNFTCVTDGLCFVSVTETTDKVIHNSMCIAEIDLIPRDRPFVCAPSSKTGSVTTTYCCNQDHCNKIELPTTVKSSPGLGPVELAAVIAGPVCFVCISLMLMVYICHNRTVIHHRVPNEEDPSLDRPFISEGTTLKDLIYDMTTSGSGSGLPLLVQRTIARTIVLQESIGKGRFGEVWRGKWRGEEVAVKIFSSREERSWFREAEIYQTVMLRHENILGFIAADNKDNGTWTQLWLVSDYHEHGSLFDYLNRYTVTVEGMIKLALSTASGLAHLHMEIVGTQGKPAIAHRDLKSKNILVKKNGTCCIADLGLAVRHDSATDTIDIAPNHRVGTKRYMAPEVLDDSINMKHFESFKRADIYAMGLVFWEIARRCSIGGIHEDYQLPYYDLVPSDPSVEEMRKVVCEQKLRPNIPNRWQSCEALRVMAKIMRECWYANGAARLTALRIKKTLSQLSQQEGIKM
Assay: TGFβ R1 autophosphorylation protocol (33P-ATP, phosphocellulose filter plate)
Format: biochemical
Details: 10 uM ATP, read-out: IC50 for Kinase Inhibition
Experimental: The compounds of the invention were tested for their ability to inhibit TGFβ by a TGFβ R^1 autophosphorylation protocol. This was conducted as follows: Compound dilutions and reagents were prepared fresh daily. Compounds were diluted from DMSO stock solutions to 2 times the desired assay concentration, keeping final DMSO concentration in the assay less than or equal to 1%. TGFβ R1 was diluted to 4 times the desired assay concentration in buffer+DTT. ATP was diluted into 4× reaction buffer, and gamma-^33P-ATP was added at 60 uCi/mL.
The assay was performed by adding 10 ul of the enzyme to 20 ul of the compound solution. The reaction was initiated by the addition of 10 ul of ATP mix. Final assay conditions included 10 uM ATP, 170 nM TGFβ R1, and […] in 20 mM MOPS, pH7. The reactions were incubated at room temperature for 20 minutes. The reactions were stopped by transferring 23 ul of reaction mixture onto a phosphocellulose 96-well filter plate, which had been pre-wetted with 15 ul of 0.25M H3PO4 per well. After 5 minutes, the wells were washed 4× with 75 mM H3PO4 and once with 95% ethanol. The plate was dried, scintillation cocktail was added to each well, and the wells were counted in a Packard TopCount microplate scintillation counter.

[1] = 170 nM TGFβ R1, 20 minutes at room temperature
[2] = 170 nM TGFβ R1, room temperature 20 minutes

Row | Compound | IC50 [1] [µM] | IC50 [2] [µM]
1 | COc1cnc(-c2cc(Cl)ccc2F)nc1Nc1ccncc1C(=O)N[C@@H]1C[C@H](C(=O)N(C)C)N(C(=O)OC(C)(C)C)C1 [Compound 106, 4-({4-[2-(5-Chloro-2-fluoro-phenyl)-5-methoxy-pyrimidin-4-ylamino]-pyridine-3-carbonyl}-amino)-2-dimethyl carbamoyl-pyrrolidine-1-carboxylic acid tert-butyl ester] | 4.81 | 
2 | CC(C)c1cnc(-c2cc(Cl)ccc2F)nc1Nc1ccncc1C(=O)N1CCC[C@@H](O)C1 [Compound 217, {4-[2-(5-Chloro-2-fluoro-phenyl)-5-isopropyl-pyrimidin-4-ylamino]-pyridin-3-yl}-(3-hydroxy-piperidin-1-yl)-methanone] |  | 1.21
3 | COc1cnc(-c2cc(Cl)ccc2F)nc1Nc1ccncc1C(=O)NCCCNC(=O)COC1O[C@H](CO)[C@@H](O)[C@H](O)[C@H]1O (stereo in doubt) [Compound 135, 4-[2-(5-Chloro-2-fluoro-phenyl)-5-methoxy-pyrimidin-4-ylamino]-N-{3[2-(3,4,5-trihydroxy-6-hydroxymethyl-tetrahydro-pyran-2-yloxy)-acetylamino]-propyl)-nicotinamide] | 0.06 | 
4 | COc1cnc(-c2cc(Cl)ccc2F)nc1Nc1ccncc1C(=O)NCC1CN(C(=O)OC(C)(C)C)C1 [Compound 105] | 0.24 | 
5 | COc1cnc(-c2cc(Cl)ccc2F)nc1Nc1ccncc1C(=O)NCCCNS(C)(=O)=O [Compound 237, 4-[2-(5-Chloro-2-fluoro-phenyl)-5-methoxy-pyrimidin-4-ylamino]-N-(3-methanesulfonylamino-propyl)-nicotinamide] |  | 0.063
6 | COc1cnc(-c2cc(Cl)ccc2F)nc1Nc1ccncc1C(=O)NCC(F)(F)F [Compound 37, 4-[2-(5-Chloro-2-fluoro-phenyl)-5-methoxy-pyrimidin-4-ylamino]-N-(2,2,2-trifluoro-ethyl)-nicotinamide] | 0.16 | 
7 | COc1cnc(-c2cc(Cl)ccc2F)nc1Nc1ccncc1C(=O)NCCCNC(=O)OC(C)(C)C [Compound 33, [3-({4-[2-(5-Chloro-2-fluoro-phenyl)-5-methoxy-pyrmidin-4-ylamino]-pyridine-3-carbonyl}-amino)-propyl]-carbamic acid tert-butyl ester] | 1.13 | 
8 | O=C(NC1CC1)c1cnccc1Nc1nc(-c2cc(Cl)ccc2F)ncc1N1CCCC1 [Compound 21, 4-[2-(5-Chloro-2-fluoro-phenyl)-5-pyrrolidin-1-yl-pyrimidin-4-ylamino]-N-cyclopropyl-nicotinamide] | 0.18 | 
9 | COc1cnc(-c2cc(Cl)ccc2F)nc1Nc1ccncc1C(=O)NCC(O)CN (stereo not shown) [Compound 63, N-(3-Amino-2-hydroxy-propyl)-4-[2-(5-chloro-2-fluoro-phenyl)-5-methoxy-pyrimidin-4-ylamino]-nicotinamide] | 0.1 | 
10 | COC(=O)[C@H]1C[C@@H](NC(=O)c2cnccc2Nc2nc(-c3cc(Cl)ccc3F)ncc2OC)CN1C(=O)OC(C)(C)C [Compound 88, 4-({4-[2-(5-Chloro-2-fluoro-phenyl)-5-methoxy-pyrimidin-4-ylamino]-pyridine-3-carbonyl}-amino)-pyrrolidine-1,2-dicarboxylic acid 1-tert-butyl ester 2-methyl ester] | 14.1 | 
11 | COc1cnc(-c2cc(Cl)ccc2F)nc1Nc1ccncc1C(=O)NCCCNC(=O)Nc1ccccc1 [Compound 65, 4-[2-(5-Chloro-2-fluoro-phenyl)-5-methoxy-pyrimidin-4-ylamino]-N-[3-(3-phenyl-ureido)-propyl]-nicotinamide] | 0.59 | 
12 | COc1cnc(-c2cc(Cl)ccc2F)nc1Nc1ccncc1C(=O)NCCCNC(C)=O [Compound 94, N-(3-Acetylamino-propyl)-4-[2-(5-chloro-2-fluoro-phenyl)-5-methoxy-pyrimidin-4-ylamino]-nicotinamide] | 1.34 | 
13 | COc1cnc(-c2cc(Cl)ccc2F)nc1Nc1ccncc1C(=O)NCCCN/C(=N/C#N)NC(C)C [Compound 42] | 0.12 | 
14 | COc1cnc(-c2cc(Cl)ccc2F)nc1Nc1ccncc1C(=O)NCC(C)=O [Compound 168, 4-[2-(5-Chloro-2-fluoro-phenyl)-5-methoxy-pyrimidin-4-ylamino]-N-(2-oxo-propyl)-nicotinamide] |  | 0.024
15 | COc1cnc(-c2cc(Cl)ccc2F)nc1Nc1ccncc1C(=O)NCCCNCCOC1O[C@H](CO)[C@@H](O)[C@H](O)[C@H]1O (stereo partly shown) [Compound 134, 4-[2-(5-Chloro-2-fluoro-phenyl)-5-methoxy-pyrimidin-4-ylamino]-N-{3-[2-(3,4,5-trihydroxy-6-hydroxymethyl-tetrahydro-pyran-2-yloxy)-ethylamino]-propyl}-nicotinamide] | 0.012 | 
16 | COc1cnc(-c2cc(Cl)ccc2F)nc1Nc1ccncc1C(=O)NCCC#N [Compound 72, 4-[2-(5-Chloro-2-fluoro-phenyl)-5-methoxy-pyrimidin-4-ylamino]-N-(2-cyano-ethyl)-nicotinamide] | 0.1 | 
17 | COc1cnc(-c2cc(Cl)ccc2F)nc1Nc1ccncc1C(=O)NOCC1CC1 [Compound 129, 4-[2-(5-Chloro-2-fluoro-phenyl)-5-methoxy-pyrimidin-4-ylamino]-N-cyclopropylmethoxy-nicotinamide] | 0.059 | 
18 | COCC(COC)NC(=O)c1cnccc1Nc1nc(-c2cc(Cl)ccc2F)ncc1C(C)C [Compound 195, 4-[2-(5-Chloro-2-fluoro-phenyl)-5-isopropyl-pyrimidin-4-ylamino]-N-(2-methoxy-1-methoxymethyl-ethyl)-nicotinamide] |  | 0.424
19 | COC[C@H]1OC(CCNCCCNC(=O)c2cnccc2Nc2nc(-c3cc(Cl)ccc3F)ncc2OC)[C@H](OC)[C@@H](OC)[C@H]1OC (stereo partly shown) [Compound 126] | 0.05 | 
20 | COc1cnc(-c2cc(Cl)ccc2F)nc1Nc1ccncc1C(=O)NCCCN1CC[C@H](O)C1 [Compound 109, 4-[2-(5-Chloro-2-fluoro-phenyl)-5-methoxy-pyrimidin-4-ylamino]-N-[3-(3-hydroxy-pyrolidin-1-yl)-propyl]-nicotinamide] | 0.33 | 
21 | CC(C)c1cnc(-c2cc(Cl)ccc2F)nc1Nc1ccncc1C(=O)NCCCN1CCC[C@H]1C(=O)N1CCCC1 [Compound 190, 4-[2-(5-Chloro-2-fluoro-phenyl)-5-isopropyl-pyrimidin-4-ylamino]-N-{3-[2-(pyrrolidine-1-carbonyl)-pyrrolidine-1-yl]-propyl}-nicotinamide] |  | 0.009
22 | COc1cnc(-c2cc(Cl)ccc2F)nc1Nc1ccncc1C(=O)NCCn1cccc1 [Compound 57, 4-[2-(5-Chloro-2-fluoro-phenyl)-5-methoxy-pyrimidin-4-ylamino]-N-(2-pyrrol-1-yl-ethyl)-nicotinamide] | 0.07 | 
23 | CCOCCCNC(=O)c1cnccc1Nc1nc(-c2cc(Cl)ccc2F)ncc1C(C)C [Compound 187, 4-[2-(5-Chloro-2-fluoro-phenyl)-5-isopropyl-pyrimidin-4-ylamino]-N-(3-ethoxy-propyl)-nicotinamide] |  | 0.012
24 | O=C(c1cnccc1Nc1nc(-c2cc(Cl)ccc2F)ncc1C1CCCC1)N1CCC[C@H](O)C1 [Compound 226, {4-[2-(5-Chloro-2-fluoro-phenyl)-5-cyclopentyl-pyrimidin-4-ylamino]-pyridin-3-yl}-(3-hydroxy-piperidin-1-yl)-methanone] |  | 2.47
25 | COc1cnc(-c2cc(Cl)ccc2F)nc1Nc1ccncc1C(=O)NC1CC1CO (stereo not shown) [Compound 160, 4-[2-(5-Chloro-2-fluoro-phenyl)-5-methoxy-pyrimidin-4-ylamino]-N-(2-hydroxymethyl-cyclopropyl)-nicotinamide] |  | 0.009
